Reference: article PMC10498358 (2023)

How the values were obtained:
[1] = system: p(dAdT)2 (poly dAdT–poly dAdT) (DNA, polymer) AT; experiment: fluorescence titration, Scatchard fit; details: I = 0.05 M (sodium cacodylate); sodium cacodylate buffer, pH 7.0; polynucleotide concentration as phosphates; n fixed at 0.2; per base
[2] = system: pApU (poly A–poly U) (RNA, polymer) A/U; experiment: fluorescence titration, Scatchard fit; details: I = 0.05 M (sodium cacodylate); sodium cacodylate buffer, pH 7.0; polynucleotide concentration as phosphates; n fixed at 0.2; per base
[3] = system: p(dGdC)2 (poly dGdC–poly dGdC) (DNA, polymer) GC; experiment: fluorescence titration, Scatchard fit; details: I = 0.05 M (sodium cacodylate); sodium cacodylate buffer, pH 7.0; polynucleotide concentration as phosphates; n fixed at 0.2; per base
[4] = system: pApU (poly A–poly U) (RNA, polymer) A/U; experiment: UV thermal denaturation at 260 nm; details: I = 0.05 M (sodium cacodylate); sodium cacodylate buffer, pH 7.0; r = [compound]/[RNA] = 0.3; error ±0.5 °C; per base

log K [1] | log K [2] | log K [3] | ΔTm [4] | Compound
7.4 | 6.4 | 5.7 | +1 °C | COc1c2cc(N)cc1Cc1cc(C(C)(C)C)cc(c1OCc1nccn1C)Cc1cc(NC(=O)CCCc3ccc4ccc5cccc6ccc3c4c56)cc(c1OC)Cc1cc(C(C)(C)C)cc(c1OCc1nccn1C)C2
6.6 | 7.2 | 6.9 | -1 °C | COc1c2cc(NC(=O)CCCc3ccc4ccc5cccc6ccc3c4c56)cc1Cc1cc(C(C)(C)C)cc(c1OCc1nccn1C)Cc1cc(NC(=O)CCCc3ccc4ccc5cccc6ccc3c4c56)cc(c1OC)Cc1cc(C(C)(C)C)cc(c1OCc1nccn1C)C2
